Data reported in patent US12545653B2, “Compound as PPAR agonist and application thereof” (USA Elixiria Biotech Inc., priority 2019, dated 2026).

How the values were obtained:
db−/db− mice = experiment: Diabetic peripheral neuropathy model, Von Frey threshold, sciatic nerve ROS and MDA; assay type: in vivo, mouse; settings: in food 10 mg/kg body weight/day (pregabalin 30 mg/kg body weight/day); for level of MDA in the sciatic nerve after 10 week treatment / level of mitochondrial ROS in the sciatic nerve after 10 week treatment: compared with healthy control group; for mechanical pain threshold after 10 week treatment: compared with normal control group
Experimental: Male 5-6 week-old male db^−/db^− mice were used in the experiment, and their normoglycemic heterozygous littermates were used as controls. db^−/db^− is a commonly used type 2 diabetes animal model. The compounds was dissolved in DMSO and mixed into food pellets. The animals were given ad libitum access to the pellets, beginning from 8 to 9 weeks of age for 10 weeks. […] The method for detecting mice hindlimb hypersensitivity is performed using Von Frey filaments. […] The difference is significant with P<0.05. The increase of mitochondrial reactive oxygen species (ROS) in the sciatic nerve of mice, which in turn leads to the increase of intracellular malondialdehyde (MDA), is the etiology of this type of neuropathic pain. The efficacy of compound to treat the root cause of the disease was evaluated by measurement of the levels of MDA and mitochondrial ROS from the sciatic nerves.

klotho gene = experiment: In vivo brain transcriptional activity of klotho gene (RT-PCR of brain mRNA); design: species or system mouse; settings: 10 mg/kg body weight/day tail vein; for mRNA level of klotho gene in the brain of the mouse relative to vehicle control group: after 10 days of continuous injection; for fold induction at 10 mg/kg: Mus musculus, iv, 720 h, after 30 days of continuous injection, read-out: mRNA level of klotho gene in the brain of the mouse relative to vehicle control group
Experimental: To verify this hypothesis, adult male Kunming mice were used in the experiments. […] The injection volume is 8 ml/kg body weight. Dimethyl sulfoxide (DMSO) was used as a vehicle control of the compounds. […] The RNA was then reverse-transcribed to the cDNA, and quantified by SYBR Green fluorescence quantitative PCR kit (HaiGene) and a quantitative PCR system (Bio-Rad Min-Opticon Type 2) were used for real-time fluorescent quantitative polymerase chain reaction (RT-PCR). The mouse gene primers were design as follows: • KLOTHO-forward 5′-[…]-3′; • LOTHO-reverse 5′-[…]-3′; • GAPDH-forward 5′-[…]-3′; • GAPDH-reverse 5′-[…]-3′.
Data analysis was performed using the 2^−ΔΔct method. Semi-quantitative values of gene expression were then normalized by the control mean.

APP/PS1 transgenic mice = experiment: Alzheimer's disease model, eight-arm radial water maze and brain gene expression; assay type: in vivo, mouse; settings: for number of errors in water maze on the third day: 5 on the first day
[1] = 10 mg/kg body weight/day, 30 days, RT-PCR
[2] = 30 days in food, 10 mg/kg body weight/day (donepezil 3 mg/kg body weight/day)

| SMILES | level of MDA in the sciatic nerve after 10 week treatment (db−/db− mice) | level of mitochondrial ROS in the sciatic nerve after 10 week treatment (db−/db− mice) | mechanical pain threshold after 10 week treatment (db−/db− mice) | mRNA level of klotho gene in the brain of the mouse relative to vehicle control group (klotho gene) | fold induction at 10 mg/kg (klotho gene) | expression level of Bcl-xl gene in cerebral cortex and hippocampus compared with disease control group (APP/PS1 transgenic mice; [1]) | expression level of GluN2B gene in cerebral cortex and hippocampus compared with disease control group (APP/PS1 transgenic mice; [1]) | expression level of Gng11 gene in cerebral cortex and hippocampus compared with disease control group (APP/PS1 transgenic mice; [1]) | expression level of MnSOD gene in cerebral cortex and hippocampus compared with disease control group (APP/PS1 transgenic mice; [1]) | expression level of Prx-2 gene in cerebral cortex and hippocampus compared with disease control group (APP/PS1 transgenic mice; [1]) | expression level of klotho gene in cerebral cortex and hippocampus compared with disease control group (APP/PS1 transgenic mice; [1]) [folds] | number of errors in water maze on the third day (APP/PS1 transgenic mice; [2]) | reduction in the number of errors (reference memory), third day compared with first day (APP/PS1 transgenic mice; 30 days in food, 10 mg/kg body weight/day (donepezil 3 mg/kg body weight/day), eight-arm water maze) |
| --- | --- | --- | --- | --- | --- | --- | --- | --- | --- | --- | --- | --- | --- |
| CCc1ccc(CC/C=C/c2ccc3c(c2)C(=O)CC3)cc1 [ELB00824, (E)-6-(4-(4-ethylphenyl)but-1-en-1-yl)-2,3-dihydro-1H-inden-1-one] | no difference | no difference | no difference | more than twice | > 5 | doubled | doubled | tripled | tripled or quadrupled | tripled or quadrupled | 9 | ~1 | significant |
| CCc1ccc(CC/C=C/c2ccc3c(c2)OCCC3=O)cc1 [ELB001045, (E)-7-(4-(4-ethylphenyl)but-1-en-1-yl)chroman-4-one] | reduced | reduced | significantly improved | more than twice | > 5 |  |  |  |  |  |  | comparable to that of ELB00824 |  |
| CCc1ccc(CC/C=C/c2ccc3c(c2)C(=O)COC3)cc1 [ELB001046, (E)-6-(4-(4-ethylphenyl)but-1-en-1-yl)isochroman-4-one] | reduced | reduced | significantly improved | more than twice | > 5 |  |  |  |  |  |  | comparable to that of ELB00824 |  |
| CCc1ccc(OC/C=C/c2ccc3c(c2)C(=O)CC3)cc1 [ELB001115, (E)-6-(3-(4-ethylphenoxy)prop-1-en-1-yl)-2,3-dihydro-1H-inden-1-one] | reduced | reduced | significantly improved | more than twice | > 5 |  |  |  |  |  |  | comparable to that of ELB00824 |  |
| COc1ccc(CC/C=C/c2ccc3c(c2)C(=O)CC3)cc1 [ELB001116, (E)-6-(4-(4-methoxyphenyl)but-1-en-1-yl)-2,3-dihydro-1H-inden-1-one] | no difference | no difference | no difference | more than twice | > 5 |  |  |  |  |  |  | comparable to that of ELB00824 |  |
| CCc1ccc(CC/C=C/c2ccc3c(c2)C(=O)CC3)nc1 [ELB001125, (E)-6-(4-(5-ethylpyridin-2-yl)but-1-en-1-yl)-2,3-dihydro-1H-inden-1-one] | reduced | reduced | significantly improved | more than twice | > 5 |  |  |  |  |  |  | comparable to that of ELB00824 |  |
